From US11739337B2, “Gadusol derivative production in bacteria” (Oregon State University, priority 2019, dated 2023)
Read-outs that look alike come from different tables or passages of the source. Values belong to the compound of their own block, whether it stands above or below them.

How the values were obtained:
[1] = cited from earlier work
[2] = background statement; cited from earlier work
Solubility in methanol = type: physicochemical
[3] = comparison value for shinorine; cited from earlier work
[4] = UV absorbance maximum (λmax); type: physicochemical; conditions: for UV maximum: under acidic conditions, HPLC of culture broth
Experimental: Gadusporine A (see FIG. 5A), a yellow-brown solid, UV (50 mM phosphate buffer pH 7) λmax 340 nm, (50 mM acetic acid pH 3) λmax 338 nm. ^1H NMR (700 MHz, D2O) and ^13C NMR (175 MHz, D2O) see Table 3. HR-ESIMS m/z 349.1239 [M+H]^+ (calculated for C13H20N2O9, 349.1247).
Gadusporine A was produced at 20 mg/L. Gadusol was produced by pTMAO-G1 at of 29 mg/L.
Shinorine has been reported to have λmax=330 nm at pH 1.7 and λmax=334 nm at pH 7. […] Gadusporine A has a molar extinction coefficient ε=49,400, as measured in 50 mM phosphate buffer at pH 7.0, which is slightly higher than shinorine (ε=44,000), thus stronger UV absorbance activity.

[5] = Molar extinction coefficient by UV absorbance at 340 nm; type: physicochemical; conditions: 50 mM phosphate buffer at pH 7.0, absorbance at 340 nm; in M-1 cm-1 (unit assumed)
Experimental: S. coelicolor A(3)2 pTMAO-G3 was cultured as described above at larger scales and 225 mL of S. coelicolor pTMAO-G3 culture broth was dried to ˜20 mL and passed through a C18 solid phase extraction (SPE) column. Gadusol and gadusporines were mostly un-retained, however, washing with water for 1-2 column volumes (CVs) eluted the remaining compounds. The eluent was combined and dried to ˜20 mL, which was applied directly to a 300 mL Bio-Rad AG®-1×8 (acetate form) column. After washing with 2 L of water, 500 mM acetic acid was used to elute gadusol and gadusporines. All fractions containing both gadusol and gadusporines were combined and fractions lacking gadusol but containing gadusporines were combined separately and dried. The gadusol-free fraction was further purified using the preparative HPLC as described previously to give gadusporine A (9.0 mg) (see FIG. 5A) as two different isomers. All NMR experiments were performed on a 700 MHz Bruker NMR Spectrometer with a cryo probe at the Oregon State University (OSU) NMR facility. The molar extinction coefficient of gadusporine A was determined by dissolving 0.6 mg in 50 mM phosphate buffer at pH 7.0 in a 25 mL volumetric flask then measuring UV absorbance at 340 nm.

Compound: COC1=C(O)CC(O)(CO)C(O)C1=O (centres unmarked) [Gadusol, gadusol]
- UV absorbance maxima ([1]; pH 2.5): 268 nm
- UV absorbance maxima ([1]; pH 7.0): 296 nm
- antioxidant activity [2]: antioxidant activity

- solubility in methanol (Solubility in methanol): readily dissolved in methanol
Compound: COC1=C(NCC(=O)O)C[C@@](O)(CO)C/C1=N\[C@@H](CO)C(=O)O [Shinorine, shinorine]
- λmax ([1]; pH 1.7, reported): 330 nm
- λmax ([1]; pH 7, reported): 334 nm
- molar extinction coefficient ε [3]: 44,000

- UV λmax ([4]; 50 mM acetic acid pH 3): 338 nm
- UV λmax ([4]; 50 mM phosphate buffer pH 7): 340 nm
- λmax ([4]; pH 2.0): 338 nm
- λmax ([4]; pH 7.0): 340 nm
- UV maximum [4]: 338 nm
- molar extinction coefficient ε [5]: 49,400
Compound: COC1=C(NCC(=O)O)C[C@@](O)(CO)[C@@H](O)/C1=N\[C@@H](CO)C(=O)O [gadusporine A, (S)-2-(((5R,6S,E)-3-((carboxymethyl)amino)-5,6-dihydroxy-5-(hydroxymethyl)-2-methoxycyclohex-2-en-1-ylidene)amino)-3-hydroxypropanoic acid]

- UV λmax ([4]; 50 mM acetic acid pH 3): 338 nm
- UV λmax ([4]; 50 mM phosphate buffer pH 7): 340 nm
- UV maximum [4]: 338 nm
- solubility in methanol (Solubility in methanol): not very soluble in methanol
Compound: COC1=C(NCC(=O)O)C[C@@](O)(CO)[C@@H](O)/C1=N\[C@@H](C)C(=O)O [gadusporine B, (S)-2-(((5R,6S,E)-3-((carboxymethyl)amino)-5,6-dihydroxy-5-(hydroxymethyl)-2-methoxycyclohex-2-en-1-ylidene)amino)propanoic acid]

Compound: C/C=C/NC1=C(OC)C(=NCC(=O)O)CC(O)(CO)C1 (centres unmarked) [palythene]
- λmax ([1]; background, no pH given): 360 nm

Compound: C/C=C\NC1=C(OC)C(=NCC(=O)O)CC(O)(CO)C1 (centres unmarked) [usujirene]
- λmax ([1]; background, no pH given): 357 nm

Compound: prasiolin
- λmax ([1]; background, no pH given): 324 nm
